The values that follow come from PubChem BioAssay (NCI).

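Five concentrations, 48 hours, 96-well plates. GI50 is the concentration that inhibits growth by half. TGI marks complete inhibition of growth.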

Test systems include A498 renal; A549 NSCLC; HCT-15 colon; KM12 colon; NCI-H226 lung; OVCAR-3 ovarian; OVCAR-4 ovarian; SF-268 CNS; SN12C renal; SW-620 colon.
What all share (assay): NCI-60 cell line screen, 48 h

In the case of `N#C/C1=C(\N)CCSSSC1`, the TGI is 58 µM in the experiment on A498 renal; over 100 µM with A549 NSCLC; 98.2 µM in the experiment with HCT-15 colon; over 100 µM in the experiment with KM12 colon; 65.8 µM with NCI-H226 lung; over 100 µM with OVCAR-3 ovarian. Also, the TGI in the experiment on OVCAR-4 ovarian, in the experiment on SF-268 CNS, with SN12C renal and with SW-620 colon was over 100 µM each time.
As for `COc1ccc2[nH]cc(C3(c4c[nH]c5ccc(OC)cc45)C(=O)Nc4ccc(F)cc43)c2c1`, the GI50 in the experiment on A498 renal is 2.56 µM; in the experiment on HCT-15 colon, 4.12 µM; in the experiment with KM12 colon it was 2.58 µM; with NCI-H226 lung it was 2.58 µM; in the experiment on OVCAR-3 ovarian it was 2.15 µM; in the experiment on OVCAR-4 ovarian, 2.76 µM. Further, the GI50 in the experiment with SF-268 CNS was 3.17 µM; in the experiment with SN12C renal, 2.97 µM; in the experiment with SW-620 colon, 3.04 µM. Moreover, the TGI in the experiment with A498 renal was determined as 12 µM; in the experiment on HCT-15 colon, 20.2 µM; in the experiment with KM12 colon, 6.96 µM; in the experiment on NCI-H226 lung, 12 µM; in the experiment on OVCAR-3 ovarian, 4.42 µM; with OVCAR-4 ovarian, 11.6 µM. For the same molecule, the TGI with SF-268 CNS worked out at 12.7 µM; in the experiment on SN12C renal, 12.1 µM; with SW-620 colon, 11.5 µM.
With `Cn1cc(C2=C(c3cn(CCCCO)c4ccccc34)C(=O)NC2=O)c2ccccc21`, the GI50 was 6.32 µM in the experiment with A498 renal; 7.97 µM with A549 NSCLC; 7.72 µM in the experiment with HCT-15 colon; 7.09 µM in the experiment with KM12 colon; 7.55 µM with NCI-H226 lung; 8.09 µM in the experiment with OVCAR-3 ovarian. Further, the GI50 is 13.9 µM in the experiment with OVCAR-4 ovarian, 8.63 µM with SF-268 CNS, 7.17 µM with SN12C renal and 9.26 µM in the experiment on SW-620 colon. For the same molecule, the TGI in the experiment with A498 renal was 22.2 µM; in the experiment with A549 NSCLC, over 25 µM; in the experiment on HCT-15 colon, over 25 µM; in the experiment on KM12 colon it was over 23 µM; in the experiment with NCI-H226 lung it was over 25 µM; with OVCAR-3 ovarian it was over 25 µM. The TGI in the experiment with OVCAR-4 ovarian, with SF-268 CNS, in the experiment on SN12C renal and in the experiment on SW-620 colon was over 25 µM each time.
On to `O=C1OCC2=C1C(c1cccc(Br)c1)c1cc3c(cc1N2CCO)CCC3` (stereo not given), for which the GI50 in the experiment with A498 renal is 0.0155 µM; in the experiment on A549 NSCLC, 0.133 µM; with HCT-15 colon, 0.114 µM; in the experiment on KM12 colon it was 0.0329 µM; in the experiment on NCI-H226 lung it was 0.116 µM; with OVCAR-3 ovarian it was 0.0339 µM. Besides, the GI50 in the experiment with OVCAR-4 ovarian is 0.168 µM; in the experiment with SF-268 CNS, 0.109 µM; with SN12C renal it was 0.246 µM; in the experiment on SW-620 colon it was 0.0583 µM. Also, the TGI with A498 renal worked out at 0.199 µM; with A549 NSCLC it was 5.54 µM; in the experiment on HCT-15 colon, 7.14 µM; in the experiment on KM12 colon, 1.04 µM; in the experiment with NCI-H226 lung it was 0.761 µM; in the experiment with OVCAR-3 ovarian, 0.153 µM. Also, the TGI in the experiment with OVCAR-4 ovarian was 16 µM; in the experiment with SF-268 CNS it was 6.47 µM; with SN12C renal it was 6.9 µM; in the experiment with SW-620 colon it was 8.47 µM.
Consider `COC(=O)C(Cc1nc2ccc(Cl)cc2[nH]c1=O)/C(=N\N)C(=O)Nc1cc(C)c(Cl)cc1S(=O)(=O)O` (stereo not given), for which the TGI in the experiment with A498 renal, with A549 NSCLC, in the experiment on HCT-15 colon, in the experiment on KM12 colon, with NCI-H226 lung and in the experiment on OVCAR-3 ovarian was over 100 µM in each case. Further, the TGI in the experiment on OVCAR-4 ovarian, with SF-268 CNS and in the experiment with SN12C renal was over 100 µM throughout.
With `CCOC(=O)Nc1ccc(-c2nc(-c3cccc(OCCN4CCOCC4)c3)c(-c3ccnc(Br)c3)[nH]2)cc1`, the GI50 in the experiment on A498 renal was 1.66 µM; in the experiment on A549 NSCLC, 3.47 µM; in the experiment with KM12 colon, 3.19 µM; with NCI-H226 lung, 3.18 µM; in the experiment on OVCAR-3 ovarian, 4.3 µM; with OVCAR-4 ovarian, 4.36 µM. The GI50 in the experiment on SF-268 CNS is 4.55 µM; in the experiment on SN12C renal it was 3.77 µM; in the experiment on SW-620 colon, 3.42 µM. In addition, the TGI in the experiment on A498 renal was 5.66 µM; in the experiment on A549 NSCLC, over 100 µM; in the experiment on KM12 colon, over 100 µM; in the experiment on NCI-H226 lung it was over 100 µM; in the experiment with OVCAR-3 ovarian, over 100 µM; with OVCAR-4 ovarian, over 100 µM. The TGI in the experiment with SF-268 CNS, in the experiment with SN12C renal and with SW-620 colon was over 100 µM each time.
Take `Nc1nc(/C=C\c2ccc([N+](=O)[O-])s2)nc(N2CCCC2)n1`: the GI50 was 16.6 µM with A498 renal; 2.97 µM in the experiment on A549 NSCLC; 1.22 µM in the experiment on KM12 colon; 3.32 µM in the experiment with NCI-H226 lung; 3.49 µM with OVCAR-3 ovarian; 5 µM in the experiment with OVCAR-4 ovarian. In addition, the results for the GI50 in the experiment on SF-268 CNS, with SN12C renal and in the experiment with SW-620 colon were 2.37 µM, 3.45 µM and 2.76 µM, respectively. Further, the TGI was 34.6 µM in the experiment on A498 renal; 22.9 µM with A549 NSCLC; 6.51 µM in the experiment on KM12 colon; 21.7 µM in the experiment with NCI-H226 lung; 12.2 µM in the experiment with OVCAR-3 ovarian; 14.1 µM with OVCAR-4 ovarian. Moreover, the values for the TGI with SF-268 CNS, in the experiment on SN12C renal and in the experiment on SW-620 colon were 13.6 µM, 20.5 µM and 24 µM, respectively.
With `C1CN2CCN3CCN4CCN1[P+]243`, the TGI with A498 renal, with A549 NSCLC, in the experiment with HCT-15 colon, with KM12 colon, in the experiment on NCI-H226 lung and in the experiment on OVCAR-3 ovarian was over 100 µM in each case. For the same molecule, the TGI in the experiment on OVCAR-4 ovarian, in the experiment on SN12C renal and in the experiment on SW-620 colon was over 100 µM throughout.
Consider `CCOc1ccc(NC(=O)CC#N)cc1`, for which the TGI with A498 renal, in the experiment with A549 NSCLC, in the experiment on KM12 colon, in the experiment with NCI-H226 lung, in the experiment on OVCAR-3 ovarian and in the experiment with OVCAR-4 ovarian was over 100 µM each time. The TGI in the experiment with SF-268 CNS, with SN12C renal and in the experiment on SW-620 colon was over 100 µM in each case.
With `O=C(CCc1n[nH]c(=S)o1)Nc1ccccc1C(F)(F)F`, the TGI with A498 renal was over 100 µM; with HCT-15 colon, 38.8 µM; in the experiment on KM12 colon it was over 100 µM; with NCI-H226 lung, over 100 µM; in the experiment with OVCAR-3 ovarian, over 100 µM; with OVCAR-4 ovarian, over 100 µM. Besides, the TGI in the experiment with SF-268 CNS was over 100 µM; in the experiment with SN12C renal it was over 100 µM; in the experiment with SW-620 colon, 49 µM.
